Data on one compound can be found in patent publication US20230218632A1, “CYCLIC SULFONAMIDE DERIVATIVES AS TRAP1 MODULATORS AND USES THEREOF” (Amathus Therapeutics, Inc., priority 2020, published 2023).

The target in this experiment is T1, TRAP1 enzyme (Homo sapiens, UniProt Q12931).
T1 sequence (Q12931 60-704): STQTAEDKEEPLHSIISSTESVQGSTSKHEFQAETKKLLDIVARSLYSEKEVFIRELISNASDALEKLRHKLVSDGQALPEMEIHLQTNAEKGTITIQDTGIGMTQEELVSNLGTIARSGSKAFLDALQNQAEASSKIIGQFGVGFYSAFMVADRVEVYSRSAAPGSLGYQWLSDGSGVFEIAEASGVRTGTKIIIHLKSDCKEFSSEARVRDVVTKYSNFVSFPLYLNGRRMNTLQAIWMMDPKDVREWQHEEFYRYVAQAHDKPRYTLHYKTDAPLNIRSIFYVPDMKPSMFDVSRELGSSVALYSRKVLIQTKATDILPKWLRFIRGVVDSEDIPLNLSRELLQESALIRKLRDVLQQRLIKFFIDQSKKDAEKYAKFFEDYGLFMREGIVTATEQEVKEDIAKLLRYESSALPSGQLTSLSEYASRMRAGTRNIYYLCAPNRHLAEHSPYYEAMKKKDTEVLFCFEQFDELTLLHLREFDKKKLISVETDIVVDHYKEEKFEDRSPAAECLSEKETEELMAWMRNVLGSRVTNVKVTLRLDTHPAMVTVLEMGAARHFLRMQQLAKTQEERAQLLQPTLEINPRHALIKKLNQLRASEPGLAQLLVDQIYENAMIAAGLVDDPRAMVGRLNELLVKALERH
The experiment is described as follows: ADP Glo assay (ATPase activity of TRAP1). Type of experiment: biochemical. An outline of the steps:
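150 nM TRAP1 preincubated 30 min at 37 °C with compound (0.79–100 µM) in 25 mM Pipes pH 7.5, 40 mM KCl, 0.05 mM MgCl2; reaction started with 20 µM ATP, 60 min at 37 °C. ADP quantified by ADP-Glo luminescence against an ATP/ADP standard curve; Emax and EC50 from sigmoidal fits of activation.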
(ADP-Glo first removes unused ATP, then detects ADP through luciferase.)

Usually EC50 stands for the midpoint of the concentration-response curve. As a reminder, the Emax is the size of the effect at its maximum, as opposed to the concentration needed. `O=C(Nc1ccc2c(c1)S(=O)(=O)N(c1ccc(Br)cc1)CCO2)c1cnc(-c2ccccc2)[nH]1` [Compound 1331, N-(2-(4-bromophenyl)-1,1-dioxido-3,4-dihydro-2H-benzo[b][1,4,5]oxathiazepin-8-yl)-2-phenyl-1H-imidazole-5-carboxamide]: the 50% effective concentration (EC50) (150 nM Trap1, 20 µM ATP, concentration for half maximal activation, read-out: ADP GLO DRC: GeoMean EC50) was under 20 µM. In addition, for the setting “maximal percent activation, read-out: ADP GLO DRC: Mean Emax”, the Emax lay within 150 to 200%.
